Experimental data reported in patent US20190231740A1, “BLOOD FLOW-IMPROVING AGENT, ROYAL JELLY COMPOSITION, AND METHOD FOR PRODUCING ROYAL JELLY COMPOSITION” (YAMADA BEE COMPANY, INC., priority 2016, published 2019).

System: blood flow volume of a hindlimb of the rat
Assay: Hindlimb blood flow volume of rats after oral administration, measured with a two-dimensional laser blood flow meter
Type: in vivo
Settings: male SD rat hindlimb; for Increase in blood flow volume: one hour after oral administration vs before administration, average of three rats; for Increase in blood flow volume / Change in hindlimb blood flow volume between before and after the administration (in words): 10-hydroxydecanoic acid 120 mg/kg, 10-H2DA 420 mg/kg, Toki-shakuyaku-san 3750 mg/kg; for Change in hindlimb blood flow volume between before and after the administration (in words): one hour after oral administration
Experimental: As a test animal, a 6 to 8 week-old male rat Slc: SD rat (Japan SLC, Inc.) was used. As test substances, 10-hydroxydecanoic acid (manufactured by Combi-Blocks Inc.), trans-10-hydroxy-2-decenoic acid (referred to as “10-H2DA” hereinafter, manufactured by HANGZOU EASTBIOPHARM CO., LTD.) and Toki-shakuyaku-san (manufactured by TSUMURA & CO.) were used. A 0.5% w/v aqueous solution of methyl cellulose 400 (Wako Pure Chemical Industries, Ltd.) was prepared, and in the aqueous solution, the test substances were each suspended, thereby preparing a 12 mg/mL solution of 10-hydroxydecanoic acid, a 42 mg/ml solution of 10-H2DA and a 375 mg/ml solution of Toki-shakuyaku-san. The test animals were divided into four groups each consisting of three animals, and these groups were referred to as a 10-hydroxydecanoic acid group, a 10-H2DA group, a Toki-shakuyaku-san group and a control group. Using a gastric tube, the respective methyl cellulose aqueous solutions were orally administered to the 10-hydroxydecanoic acid group in such a desired amount that the amount of 10-hydroxydecanoic acid was 120 mg/kg, to the 10-H2DA group in such a desired amount that the amount of 10-H2DA was 420 mg/kg, and to the Toki-shakuyaku-san group in such a desired amount that the amount of Toki-shakuyaku-san was 3750 mg/kg. To the control group, a control substance (0.5% w/v methyl cellulose aqueous solution 10 mL/kg) was orally administered using a gastric tube.
Before the administration of the test substance and after one hour from the administration, a blood flow volume of a hindlimb of the rat was measured in an awaking and non-fixed state. For the measurement, a two-dimensional laser blood flow meter OZ-1 (manufactured by OMEGAWAVE INC.) was used. An increase in the blood flow volume (average value of three rats) based on that before the administration of each of the control group, the 10-hydroxydecanoic acid group, the 10-H2DA group and the Toki-shakuyaku-san group after one hour from the administration is shown in Table 1.

How did the “Increase in blood flow volume” value turn out when `O=C(O)/C=C/CCCCCCCO` [10-H2DA, trans-10-hydroxy-2-decenoic acid, reference compound] was run?
Its value is 2.2 arbitrary unit.

And the “Change in hindlimb blood flow volume between before and after the administration (in words)” value?
Its value is “a certain increase in the blood flow volume”.

Which results are given for `O=C(O)CCCCCCCCCO` [10-Hydroxydecanoic acid, 10-hydroxydecanoic acid]?
Difference in blood flow volume between the control group and the treated group (one hour after oral administration of 120 mg/kg, FIG. 1): a significant difference (P=0.01); Increase in blood flow volume: 5.8 arbitrary unit; Change in hindlimb blood flow volume between before and after the administration (in words): a remarkable increase in the blood flow volume
